Values of other authors as cited in patent US20210236427A1, “Development of Lipid Matrix Granules with Incorporation of Polysaccharides for Effective Delivery of an Antimicrobial Essential Oil” (University of Manitoba, priority 2018, published 2021).

Test system: Brachyspira hyodysenteriae
Details: in vitro; Vande Maele et al., 2016

CCCCCCCCCCCC(=O)O [lauric acid]
minimum inhibitory concentration (MIC): less than 1.5 mM
